Test results as given in US20250230462A1, “PPO2 POLYPEPTIDE HAVING TOLERANCE TO PPO INHIBITOR HERBICIDE AND APPLICATION” (priority 2022, published 2025).

What was measured:
[1] = test system: rice seedlings edited at the OsPPO2 L422M/F442M site and wild-type strain; test: Tolerance of gene-edited homozygous OsPPO2 L422M/F442M rice seedlings (4-leaf stage)
[2] = test system: Arabidopsis thaliana overexpressing rice OsPPO2 WT or L422M/F442M; test: Resistance test of Arabidopsis thaliana seeds overexpressing rice OsPPO2 on MS media containing PPO inhibitor herbicides; format: in vivo; conditions: for tolerance of L422M/F442M overexpression relative to overexpression of the wild type PPO2: FIGS. 4-6, different concentrations; for resistance of plants at higher application concentrations: 2 μM, 1 μM and 1 μM (compound A, flumioxazin, saflufenacil respectively); for tolerance/resistance of plants compared with wild-type Arabidopsis thaliana: plants overexpressing OsPPO2 L422M/F442M and OsPPO2 WT, levels similar at 50 nM, 10 nM and 40 nM (compound A, flumioxazin, saflufenacil respectively)
Method: In order to rapidly verify the tolerance of rice OsPPO2 L422M/F442M mutants to different compounds, vectors for overexpressing wild-type and mutant rice PPO2 genes were constructed by conventional methods and overexpressed in Arabidopsis thaliana.
The obtained Arabidopsis thaliana seeds overexpressing rice OsPPO2 mutants and wild types were tested for resistance on MS media (petri dishes) that contained PPO inhibitor herbicidal compounds of various concentrations.

[3] = overexpressing OsPPO2 L422M/F442M

Row | Compound | crop safety when other PPO inhibiting herbicides were applied [1] | also measured
1 | CCOC(=O)C1(C)CC(c2cc(-n3c(=O)cc(C(F)(F)F)n(C)c3=O)c(F)cc2Cl)=NO1 (stereo not shown) | excellent crop safety | 
2 | CCOC(=O)COc1ncccc1Oc1cc(-n2c(=O)cc(C(F)(F)F)n(C)c2=O)c(F)cc1Cl [Epyrifenacil, [3-[2-chloro-4-fluoro-5-(1-methyl-6-trifluoromethyl-2,4-dioxo-1,2,3,4-tetrahydropyrimidin-3-yl)phenoxy]-2-pyridyloxy] ethyl acetate] | excellent crop safety | 
3 | Cc1nn(-c2cc(CC(Cl)C(=O)O)c(Cl)cc2F)c(=O)n1C(F)F (stereo not shown) [carfentrazone] | excellent crop safety | 
4 | C#CCN1C(=O)COc2cc(F)c(N3C(=O)C4=C(CCCC4)C3=O)cc21 [flumioxazin] | excellent crop safety | tolerance of L422M/F442M overexpression relative to overexpression of the wild type PPO2 [2]: stronger tolerance; resistance of plants at higher application concentrations [2, 3]: still exhibited resistance; resistance of plants at higher application concentrations ([2]; overexpressing OsPPO2 WT): no difference from the wild-type Arabidopsis thaliana controls; tolerance/resistance of plants compared with wild-type Arabidopsis thaliana [2]: certain tolerance/resistance
5 | CS(=O)(=O)NC(=O)c1cc(Oc2ccc(C(F)(F)F)cc2Cl)ccc1[N+](=O)[O-] [fomesafen] | excellent crop safety | 
6 | CCOc1cc(Oc2ccc(C(F)(F)F)cc2Cl)ccc1[N+](=O)[O-] [oxyfluorfen] | excellent crop safety | 
7 | C#CCN(C)c1c(C#N)cnn1-c1nn2c(c1Cl)CCCC2 [pyraclonil] | excellent crop safety | 
8 | CC(C)N(C)S(=O)(=O)NC(=O)c1cc(-n2c(=O)cc(C(F)(F)F)n(C)c2=O)c(F)cc1Cl [saflufenacil] | excellent crop safety | tolerance of L422M/F442M overexpression relative to overexpression of the wild type PPO2 [2]: stronger tolerance; resistance of plants at higher application concentrations [2, 3]: still exhibited resistance; resistance of plants at higher application concentrations ([2]; overexpressing OsPPO2 WT): no difference from the wild-type Arabidopsis thaliana controls; tolerance/resistance of plants compared with wild-type Arabidopsis thaliana [2]: certain tolerance/resistance
9 | Cc1nn(-c2cc(NS(C)(=O)=O)c(Cl)cc2Cl)c(=O)n1C(F)F [sulfentrazone] | excellent crop safety | 
10 | COC(=O)CCNC(=O)C(C)Sc1cc(-n2c(=O)cc(C(F)(F)F)n(C)c2=O)c(F)cc1Cl (stereo not shown) [tiafenacil] | excellent crop safety | 
11 | C#CCN1C(=O)C(F)(F)Oc2cc(F)c(-n3c(=O)n(C)c(=S)n(C)c3=O)cc21 [trifludimoxazin] | excellent crop safety | 
